Experiments:
[1] = Inhibition of Escherichia coli DdlB after 20 mins by malachite green staining-based colorimetric assay
[2] = Competitive inhibition of Escherichia coli DdlB after 20 mins by malachite green staining-based colorimetric assay in presence of ATP
Escherichia coli [3] = assay: Inhibition of Escherichia coli DdlB at 500 uM after 20 mins by malachite green staining-based colorimetric assay
Escherichia coli [4] = assay: Inhibition of Escherichia coli DdlB at 250 uM after 20 mins by malachite green staining-based colorimetric assay

SMILES	IC50 ([1]; read-out: IC50) [µM]	Ki [2] [µM]	inhibition (Escherichia coli [3]) [%]	IC50 [1]	inhibition (Escherichia coli [4]) [%]
N/C(=N\OC(=O)Nc1cccc(Cl)c1)c1ccno1	378	326	48	–	–
COc1ccc2c(C)nc(Nc3nc(O)cc(O)n3)nc2c1	–	–	–	ND(Insoluble)	70
N/C(=N/OC(=O)c1ccc2nsnc2c1)c1ncon1	–	–	78	ND(Insoluble)	–
O=C1NC(=O)C(=C(O)Nc2ccccc2)C(=O)N1	611	–	63	–	–
Cc1cc(C(=N)NOC(=O)Nc2ccc(Cl)cc2)no1	656	–	61	–	–
O=C(N/N=C/c1cc(=O)[nH]c(O)n1)c1ccncc1	–	–	62	ND(Insoluble)	–
N/C(=N\OC(=O)Nc1ccc(Cl)cc1)c1cnccn1	–	–	77	ND(Insoluble)	–

Reference: ChEMBL document CHEMBL2163324, “Function of the D-alanine:D-alanine ligase lid loop: a molecular modeling and bioactivity study” (J Med Chem, 2012)
